Results published in ChEMBL document CHEMBL1137126, “Aza-boronic acids as non-beta-lactam inhibitors of AmpC-beta-lactamase” (Bioorg Med Chem Lett, 2004).
Values after ≈ are worked out from the molar mass of the structure shown.

Legend:
[1] = biological target: Beta-lactamase (Escherichia coli K-12, UniProt P00811); test: Apparent inhibition constant against Escherichia coli AmpC beta-lactamase
[2] = system: Escherichia coli; test: Minimum inhibitory concentration of compound against Escherichia coli derepressed
[3] = system: Escherichia coli; test: Minimum inhibitory concentration of compound against Escherichia coli K12AmpC-Ent
[4] = system: Enterobacter cloacae; test: Minimum inhibitory concentration of compound against Enterobacter cloacae derepressed 12991 ED; type: functional
[5] = system: Citrobacter freundii; test: Minimum inhibitory concentration of compound against Citrobacter freundii derepressed 91/98-2; type: functional
[6] = system: Pseudomonas aeruginosa; test: Minimum inhibitory concentration of compound against Pseudomonas aeruginosa derepressed 88/98; type: functional

Beta-lactamase, sequence (P00811 whole entry): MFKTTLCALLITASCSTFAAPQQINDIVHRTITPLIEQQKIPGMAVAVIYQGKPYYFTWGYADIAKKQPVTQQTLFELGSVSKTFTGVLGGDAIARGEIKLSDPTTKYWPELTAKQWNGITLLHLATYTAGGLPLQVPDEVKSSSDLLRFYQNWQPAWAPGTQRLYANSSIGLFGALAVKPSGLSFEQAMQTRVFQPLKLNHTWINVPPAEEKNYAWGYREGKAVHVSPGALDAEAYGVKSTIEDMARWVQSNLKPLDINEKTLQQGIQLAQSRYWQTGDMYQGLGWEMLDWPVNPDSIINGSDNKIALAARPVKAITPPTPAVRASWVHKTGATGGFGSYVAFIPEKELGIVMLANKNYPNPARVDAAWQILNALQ

Ki [1] | Compound | further results
1800 nM | OB(O)c1cccc(/N=N/c2ccc(/N=N/c3c(O)ccc4ccccc34)cc2O)c1 | –
3500 nM | OB(O)c1cccc(/N=N/c2ccccc2O)c1 | –
1500 nM | O=[N+]([O-])c1cccc(/N=N/c2cccc(B(O)O)c2)c1O | –
300 nM | OB(O)c1cccc(/N=N/c2c(O)ccc3ccccc23)c1 | –
2700 nM | Nc1cc(B(O)O)ccc1/N=N/c1cccc(B(O)O)c1 | –
2000 nM | O=S(=O)(O)c1cc(S(=O)(=O)c2cccc(/N=N/c3cccc(B(O)O)c3)c2)cs1 | –
900 nM | OB(O)c1cccc(/N=N/c2ccc(O)c3ccccc23)c1 | –
5000 nM | O=S(=O)(O)c1cc(/N=N/c2cccc(B(O)O)c2)c(O)c2ccccc12 | –
1000 nM | Cc1noc(C)c1/N=N/c1cccc(B(O)O)c1 | –

The next lines start with the compound.

Compound | Ki [1] | further results
OB(O)c1cccc(/N=N/c2ccc(O)cc2)c1 | 700 nM | –
OB(O)c1cccc(/N=N/c2c(O)cc(O)c3ccccc23)c1 | 450 nM | –
OB(O)c1cccc(/N=N/c2cc(Cl)c(O)c(Cl)c2)c1 | 3000 nM | –
OB(O)c1cccc(/N=N/c2ccc(/N=N/c3c(O)cc(O)c4ccccc34)cc2O)c1 | 700 nM | –
OB(O)c1cc(/N=N/c2ccc(Br)cc2)ccc1O | 3000 nM | –
CC(C)(O/N=C(\C(=O)N[C@@H]1C(=O)N2C(C(=O)[O-])=C(C[n+]3ccccc3)CS[C@H]12)c1csc(N)n1)C(=O)O [CEFTAZIDIME] | – | MIC [2]: 128 µg/mL (≈ 234 µM); MIC [3]: 64 µg/mL (≈ 117 µM); MIC [4]: 256 µg/mL (≈ 468 µM); MIC [5]: 64 µg/mL (≈ 117 µM); MIC [6]: 128 µg/mL (≈ 234 µM)
